In patent publication US20130224110A1, “USE OF ADENOSINE RECEPTOR SIGNALING TO MODULATE PERMEABILITY OF BLOOD-BRAIN BARRIER” (CORNELL UNIVERSITY, priority 2010, published 2013):

Key:
blood brain barrier [1] = experiment: Entry of i.v. anti-β-amyloid antibody 6E10 into brain of transgenic AD (APP/PSEN) mice after NECA; type: in vivo; conditions: NECA i.v. 3 h before 6E10 i.v., brains collected after 90 min
Experimental: Wild type and transgenic (AD) mice were given 0.80 μg NECA (i.v.). After 3 h, 400 μg of antibody to β-amyloid (200 μl of 2 mg/ml; clone 6E10, Covance, Princeton, N.J.) was administered i.v. and the mice rested for 90 min. Mice were then anesthetized and perfused as described above and their brains were placed in OTC and flash-frozen for later sectioning. Sagital sections (6 μm) were fixed in acetone for 10 min, then washed in PBS. Sections were blocked with casein for 20 min then incubated with 1:50 dilution of goat anti-mouse IgCy5 (polyclonal, 1 mg/ml, Abcam, Cabridge, Mass.) for 20 min then washed 3 times in PBS. Sections were then dried and mounted with VectashieldHardset mounting media with DAPI (Vector Laboratories, Burlingame, Calif.). Images were obtained on a Zeiss Axio Imager M1 fluorescent microscope.
The most challenging therapeutic agents to get across the BBB are macromolecules such as antibodies, due to their enormous size (˜150 kDa). It was asked whether adenosine receptor modulation with NECA can facilitate the entry of antibodies into the CNS. To test this, a double [amyloid precursor protein (APP)/presenilin (PSEN)] transgenic mouse model of AD [strain B6.Cg-Tg(APPswe,PSEN1dE9)85Dbo/J] was used. […]

blood brain barrier [2] = experiment: Evans Blue dye extravasation across the blood brain barrier in mice immunized for EAE; type: in vivo; conditions: WT EAE mice, 100 μl 0.01 nM on days 1, 3, 5, 7, 9; dye on day 10
Experimental: In order to determine if activation of adenosine receptors would induce extravazation of Evans Blue dye across the blood brain barrier (BBB), mice were first treated on day one with NECA, a non-selective adenosine receptor agonist (n=2, 100 μl 0.01 nM); and, PBS as a vehicle control (n=2, 100 μl). On day 2 mice were then immunized with CFA-MOG35-55 and pertussis to induce EAE. Then NECA or PBS was administered every other day on day 3, day 5, day 7 and day 9. On day 10, mice were injected intravenously with 200 μl 1% Evans Blue dye ([…] total dye injected). Six hours after administration of Evans Blue, mice were anesthetized with a ketamine/xylazine mix and perfused via the left ventricle with ice cold PBS. Brains were harvested and homogenized in n,n-dimethylformamide (DMF) at 5 μl/mg (v:w). Tissue was incubated for 72 hours at room temperature in DMF to extract the dye. Following extraction, the tissue/solvent mixture was centrifuged at 500×g for 30 minutes and 100 μl of supernatant was read on a BioTex spectrophotometer at 620 nm.

Compound: CCNC(=O)[C@H]1O[C@@H](n2cnc3c(N)ncnc32)[C@H](O)[C@@H]1O [NECA, 5′-N-ethylcarboxamido adenosine]
- binding of i.v. injected 6E10 antibody to Aβ plaques in brain (blood brain barrier [1]): Binding of 6E10 antibody to Aβ plaques was observed throughout the brains
- BBB permeability to Evans Blue dye (blood brain barrier [2]): increase in BBB permeability over PBS control EAE mice
